Measurements published in patent publication US5594024A, “Centrally actig substituted phenylazacycloalkanes” (priority 1995, dated 1997).
Entries after “also recorded” stand apart in the source; their conditions may differ.

What was measured:
5-HT receptor = assay: 5-HTP accumulation (5-HT synthesis rate) in non-pretreated rats after NSD 1015; type: in vivo, rat (male Sprague-Dawley)
Experimental: observations are commented to the right. After the session the rats were
accumulation in the NErich cortical regions and 5HTP in the limbic
(§1) Injection volumes were 5 mL/kg.

[1] = test system: d-amphetamine-induced hyperactivity; assay: d-Amphetamine-induced hyperactivity in habituated rats; type: in vivo, rat
habituated rats = assay: Locomotor activity and behavior in habituated rats; type: in vivo, rat (male Sprague-Dawley); conditions: 60 min
Experimental: Footnotes Table 3. The rats were habituated to the motility meters 60 min
prior to the activity session.
as §1
Locomotor activity was measured in rats which were habituated 60 minutes to the activity meters before drug injection. The activity was measured for the subsequent 60 minutes and expressed as % of controls (means ±SEM, n=4).

striatal DA release = assay: In vivo brain microdialysis in rat striatum (conscious rats); conditions: for Microdialysis in rat striatum, 5-HIAA / Microdialysis in rat striatum, DA / Microdialysis in rat striatum, DOPAC / Microdialysis in rat striatum, HVA: 50 μmol/kg s.c.
Experimental: In the experiments with habituated rats no NSD was administered and the animals were killed one hour after drug administration. […] The levels were expressed as % of controls (DOPAC and 5-HIAA see Table 3). The in vivo brain microdialysis experiments were performed in conscious rats as described by Waters et al., Eur. J. Pharm., 187, 425-34 (1990).
The dialysis was performed in conscious rats implanted with a dialysis probe (Carnegie Medicin, Stockholm) in the caudate. […] The perfusion media was a Ringer solution with a Ca2+ concentration of 1.2 mM. The perfusion rate was 2.0 μL/min and samples were collected every 20 minutes and analyzed on HPLC/EC. Data are expressed as % of controls, means ±SEM, n=4.

dopamine autoreceptors = assay: GBL-model (DA synthesis rate; presynaptic dopamine autoreceptors); type: in vivo, rat
Text: The effects on DOPA accumulation in the GBL-model is considered to reflect an event at the presynaptic dopamine autoreceptors (for further details, see Svensson et al., Nunyn-Schmiedeberg's Arch. Pharm., 334, 234(1986)).

CCCN1CCC[C@@H](c2cccc(C#N)c2)C1 [S-(-)-34, S-(-)-3-(3-Cyanophenyl-N-n-propyl)piperidine]
brain 5-HTP formation, elevation (5-HT receptor; 25 μmol/kg, sc and above): 45-50%
5-HTP acc Limbic Region (5-HT receptor; 50 sc): 144 ± 6 % of saline controls
5-HTP acc Limbic Region (5-HT receptor; 100 sc): 148 ± 10 % of saline controls
5-HTP acc Limbic Region (5-HT receptor; 200 sc): 80 ± 12 % of saline controls
brain 5-HTP levels (in words) (5-HT receptor; non-pretreated rats): elevated brain 5-HTP levels
effect on d-amphetamine-induced hyperactivity ([1]; 64 mg/kg, sc, d-amphetamine 5.0 mg/kg): failed to block the hyperactivity
effect combined with lower dose of d-amphetamine ([1]; d-amphetamine 0.5 mg/kg, sc): additive stimulatory effect
block of d-amphetamine-induced hyperactivity (in words) ([1]; even at high doses): failed to block d-amphetamine-induced hyperactivity even at high doses
effect on activation induced by high dose d-amphetamine ([1]; test compound 14 mg/kg, sc, d-amphetamine 5 mg/kg): failed to affect the strong activation
locomotor stimulation in habituated rats (habituated rats; % of controls): +600%
response vs control in vivo at 25 µmol/kg (habituated rats; Rattus norvegicus, 1 h, 25 μmol/kg po, habituated rats, read-out: Motor Activity): 231 ± 31%
Microdialysis in rat striatum, 5-HIAA (striatal DA release; 0 min): 100 % of control
Microdialysis in rat striatum, DA (striatal DA release; 0 min): 100 % of control
Microdialysis in rat striatum, DOPAC (striatal DA release; 0 min): 100 % of control
Microdialysis in rat striatum, HVA (striatal DA release; 0 min): 100 % of control
Microdialysis in rat striatum, 5-HIAA (striatal DA release; 20 min): 110 % of control
Microdialysis in rat striatum, DA (striatal DA release; 20 min): 180 % of control
Microdialysis in rat striatum, DOPAC (striatal DA release; 20 min): 180 % of control
Microdialysis in rat striatum, HVA (striatal DA release; 20 min): 140 % of control
Microdialysis in rat striatum, 5-HIAA (striatal DA release; 40 min): 115 % of control
Microdialysis in rat striatum, DA (striatal DA release; 40 min): 240 % of control
Microdialysis in rat striatum, DOPAC (striatal DA release; 40 min): 250 % of control
Microdialysis in rat striatum, HVA (striatal DA release; 40 min): 200 % of control
Microdialysis in rat striatum, 5-HIAA (striatal DA release; 60 min): 120 % of control
Microdialysis in rat striatum, DA (striatal DA release; 60 min): 280 % of control
Microdialysis in rat striatum, DOPAC (striatal DA release; 60 min): 295 % of control
Microdialysis in rat striatum, HVA (striatal DA release; 60 min): 250 % of control
Microdialysis in rat striatum, 5-HIAA (striatal DA release; 80 min): 115 % of control
Microdialysis in rat striatum, DA (striatal DA release; 80 min): 300 % of control
Microdialysis in rat striatum, DOPAC (striatal DA release; 80 min): 300 % of control
Microdialysis in rat striatum, HVA (striatal DA release; 80 min): 280 % of control
Microdialysis in rat striatum, 5-HIAA (striatal DA release; 100 min): 115 % of control
Microdialysis in rat striatum, DA (striatal DA release; 100 min): 280 % of control
Microdialysis in rat striatum, DOPAC (striatal DA release; 100 min): 295 % of control
Microdialysis in rat striatum, HVA (striatal DA release; 100 min): 300 % of control
Microdialysis in rat striatum, 5-HIAA (striatal DA release; 120 min): 110 % of control
Microdialysis in rat striatum, DA (striatal DA release; 120 min): 275 % of control
Microdialysis in rat striatum, DOPAC (striatal DA release; 120 min): 280 % of control
Microdialysis in rat striatum, HVA (striatal DA release; 120 min): 310 % of control
Microdialysis in rat striatum, 5-HIAA (striatal DA release; 140 min): 105 % of control
Microdialysis in rat striatum, DA (striatal DA release; 140 min): 225 % of control
Microdialysis in rat striatum, DOPAC (striatal DA release; 140 min): 260 % of control
Microdialysis in rat striatum, HVA (striatal DA release; 140 min): 300 % of control
Microdialysis in rat striatum, 5-HIAA (striatal DA release; 160 min): 110 % of control
Microdialysis in rat striatum, DA (striatal DA release; 160 min): 200 % of control
Microdialysis in rat striatum, DOPAC (striatal DA release; 160 min): 250 % of control
Microdialysis in rat striatum, HVA (striatal DA release; 160 min): 305 % of control
Microdialysis in rat striatum, 5-HIAA (striatal DA release; 180 min): 110 % of control
Microdialysis in rat striatum, DA (striatal DA release; 180 min): 190 % of control
Microdialysis in rat striatum, DOPAC (striatal DA release; 180 min): 230 % of control
Microdialysis in rat striatum, HVA (striatal DA release; 180 min): 280 % of control
Microdialysis in rat striatum, 5-HIAA (striatal DA release; 200 min): 110 % of control
Microdialysis in rat striatum, DA (striatal DA release; 200 min): 180 % of control
Microdialysis in rat striatum, DOPAC (striatal DA release; 200 min): 215 % of control
Microdialysis in rat striatum, HVA (striatal DA release; 200 min): 220 % of control
Microdialysis in rat striatum, 5-HIAA (striatal DA release; 220 min): 100 % of control
Microdialysis in rat striatum, DA (striatal DA release; 220 min): 160 % of control
Microdialysis in rat striatum, DOPAC (striatal DA release; 220 min): 190 % of control
Microdialysis in rat striatum, HVA (striatal DA release; 220 min): 230 % of control
duration for the increase in DOPAC and HVA (striatal DA release; 50 μmol/kg, sc): at least 4 hours
duration of the effect (DA release) (striatal DA release; 50 μmol/kg, sc): approximately 2.5 hours
levels of 5-HIAA, microdialysis (in words) (striatal DA release; 50 μmol/kg, sc): No consistent changes in the levels of 5-HIAA; also recorded: failed to affect brain levels of 5-HIAA
blockade of the apomorphine effect in the GBL-model (dopamine autoreceptors; 100 μmol/kg, sc): only a partial blockade
effect per se in the GBL-model (dopamine autoreceptors; 200 μmol/kg, sc): inactive per se
blockade of the apomorphine effect in the GBL-model (dopamine autoreceptors; 200 μmol/kg, sc, 40 minutes): blocked the effect of apomorphine
blockade of apomorphine in the GBL-model (in words) (dopamine autoreceptors; rat, in vivo): blocks apomorphine in the GBL-model
